Tests used:
[1] = solubility of the dye in the plant nutrient; format: physicochemical; conditions: dye in its small molecule form; nutrient may be water
[2] = in vivo early half-life of the dye; conditions: dye in its small molecule form

CC1(C)C(/C=C/C=C/C=C/C=C2\N(CCCCS(=O)(=O)O)c3ccc4ccccc4c3C2(C)C)=[N+](CCCCS(=O)(=O)[O-])c2ccc3ccccc3c21 [Indocyanine green, indocyanine green]
solubility in the nutrient [1]: somewhat less soluble
in vivo early half-life [2]: shorter

From patent US10852236B2, “Method of measuring plant nutrient transport using near-infrared imaging” (Curadel, LLC, priority 2017, dated 2020)
